According to ChEMBL document CHEMBL3091388, “New cytotoxic benzosuberene analogs. Synthesis, molecular modeling and biological evaluation” (Bioorg Med Chem Lett, 2013):
pIC50: −log10 of the molar value.

What was measured:
[1] = Apparent permeability from apical to basolateral side in RRCK cells; assay type: ADME, cell-based, Canis lupus familiaris, MDCKII-LE; conditions: dog, MDCK
CYP3A4 = CYP3A4 (Homo sapiens, UniProt P08684); assay: Inhibition of CYP3A4 (unknown origin) at 3 uM; assay type: ADME
CYP2C9 = CYP2C9 (Homo sapiens, UniProt P11712); assay: Inhibition of CYP2C9 (unknown origin) at 3 uM; assay type: ADME
NCI-N87 = assay: Cytotoxicity against human NCI-N87 cells assessed as cell viability after 4 days by MTS assay; assay type: functional, cell-based; conditions: NCI-N87, 96 h
CYP2D6 = CYP2D6 (Homo sapiens, UniProt P10635); assay: Inhibition of CYP2D6 (unknown origin) at 3 uM; assay type: ADME
MDA-MB-468 = assay: Cytotoxicity against human MDA-MB-468 cells assessed as cell viability after 4 days by MTS assay; assay type: functional, cell-based; conditions: MDA-MB-468, 96 h
CYP2C8 = biological target: T1, CYP2C8 (Homo sapiens, UniProt P10632); assay: Inhibition of CYP2C8 (unknown origin) at 3 uM; assay type: ADME
T1 sequence (P10632 whole entry): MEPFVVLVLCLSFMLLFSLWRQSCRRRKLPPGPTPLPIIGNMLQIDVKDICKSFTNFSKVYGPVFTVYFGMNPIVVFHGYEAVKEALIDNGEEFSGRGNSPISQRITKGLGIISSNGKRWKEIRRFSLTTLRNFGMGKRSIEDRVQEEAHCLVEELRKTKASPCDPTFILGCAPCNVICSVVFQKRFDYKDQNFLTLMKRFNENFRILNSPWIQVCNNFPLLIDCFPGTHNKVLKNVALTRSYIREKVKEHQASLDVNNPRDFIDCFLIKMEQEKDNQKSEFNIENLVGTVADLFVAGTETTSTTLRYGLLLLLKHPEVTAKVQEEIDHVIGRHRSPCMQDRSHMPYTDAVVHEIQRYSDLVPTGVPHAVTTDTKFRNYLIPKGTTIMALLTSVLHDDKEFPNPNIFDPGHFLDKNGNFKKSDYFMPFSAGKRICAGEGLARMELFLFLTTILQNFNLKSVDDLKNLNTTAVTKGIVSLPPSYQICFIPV

[2] = Apparent intrinsic clearance in human liver microsomes at 1 uM; assay type: ADME; conditions: read-out: CLH(app)
CYP1A2 = biological target: T2, CYP1A2 (Homo sapiens, UniProt P05177); assay: Inhibition of CYP1A2 (unknown origin) at 3 uM; assay type: ADME
T2 sequence (P05177 whole entry): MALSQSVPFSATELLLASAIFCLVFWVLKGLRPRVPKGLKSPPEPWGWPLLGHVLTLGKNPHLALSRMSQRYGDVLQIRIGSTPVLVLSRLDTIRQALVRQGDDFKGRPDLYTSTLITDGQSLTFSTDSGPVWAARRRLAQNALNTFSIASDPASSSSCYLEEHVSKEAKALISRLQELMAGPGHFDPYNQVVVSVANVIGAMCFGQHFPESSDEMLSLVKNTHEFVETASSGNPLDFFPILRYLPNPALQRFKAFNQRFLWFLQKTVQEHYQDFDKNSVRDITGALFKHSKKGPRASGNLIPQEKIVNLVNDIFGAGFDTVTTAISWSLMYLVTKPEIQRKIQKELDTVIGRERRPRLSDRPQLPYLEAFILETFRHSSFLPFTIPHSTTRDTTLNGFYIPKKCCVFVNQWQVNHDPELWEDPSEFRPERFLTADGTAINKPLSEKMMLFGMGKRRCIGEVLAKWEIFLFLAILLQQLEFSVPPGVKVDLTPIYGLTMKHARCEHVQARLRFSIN

BT-474 = assay: Cytotoxicity against human BT474 cells assessed as cell viability after 4 days by MTS assay; assay type: functional, cell-based; conditions: BT-474, 96 h
HUVEC = assay: Cytotoxicity against HUVEC assessed as cell viability after 4 days by MTS assay; assay type: cell-based; conditions: Homo sapiens, 96 h
MDR1 (ABCB1, P-gp) = MDR1 (ABCB1, P-gp) (Homo sapiens, UniProt P08183); assay: Activity at MDR1 (unknown origin) expressed in MDCK cells assessed as efflux ratio of permeability at 2 uM; assay type: ADME, cell-based
Sequence of MDR1 (ABCB1, P-gp) (P08183 whole entry): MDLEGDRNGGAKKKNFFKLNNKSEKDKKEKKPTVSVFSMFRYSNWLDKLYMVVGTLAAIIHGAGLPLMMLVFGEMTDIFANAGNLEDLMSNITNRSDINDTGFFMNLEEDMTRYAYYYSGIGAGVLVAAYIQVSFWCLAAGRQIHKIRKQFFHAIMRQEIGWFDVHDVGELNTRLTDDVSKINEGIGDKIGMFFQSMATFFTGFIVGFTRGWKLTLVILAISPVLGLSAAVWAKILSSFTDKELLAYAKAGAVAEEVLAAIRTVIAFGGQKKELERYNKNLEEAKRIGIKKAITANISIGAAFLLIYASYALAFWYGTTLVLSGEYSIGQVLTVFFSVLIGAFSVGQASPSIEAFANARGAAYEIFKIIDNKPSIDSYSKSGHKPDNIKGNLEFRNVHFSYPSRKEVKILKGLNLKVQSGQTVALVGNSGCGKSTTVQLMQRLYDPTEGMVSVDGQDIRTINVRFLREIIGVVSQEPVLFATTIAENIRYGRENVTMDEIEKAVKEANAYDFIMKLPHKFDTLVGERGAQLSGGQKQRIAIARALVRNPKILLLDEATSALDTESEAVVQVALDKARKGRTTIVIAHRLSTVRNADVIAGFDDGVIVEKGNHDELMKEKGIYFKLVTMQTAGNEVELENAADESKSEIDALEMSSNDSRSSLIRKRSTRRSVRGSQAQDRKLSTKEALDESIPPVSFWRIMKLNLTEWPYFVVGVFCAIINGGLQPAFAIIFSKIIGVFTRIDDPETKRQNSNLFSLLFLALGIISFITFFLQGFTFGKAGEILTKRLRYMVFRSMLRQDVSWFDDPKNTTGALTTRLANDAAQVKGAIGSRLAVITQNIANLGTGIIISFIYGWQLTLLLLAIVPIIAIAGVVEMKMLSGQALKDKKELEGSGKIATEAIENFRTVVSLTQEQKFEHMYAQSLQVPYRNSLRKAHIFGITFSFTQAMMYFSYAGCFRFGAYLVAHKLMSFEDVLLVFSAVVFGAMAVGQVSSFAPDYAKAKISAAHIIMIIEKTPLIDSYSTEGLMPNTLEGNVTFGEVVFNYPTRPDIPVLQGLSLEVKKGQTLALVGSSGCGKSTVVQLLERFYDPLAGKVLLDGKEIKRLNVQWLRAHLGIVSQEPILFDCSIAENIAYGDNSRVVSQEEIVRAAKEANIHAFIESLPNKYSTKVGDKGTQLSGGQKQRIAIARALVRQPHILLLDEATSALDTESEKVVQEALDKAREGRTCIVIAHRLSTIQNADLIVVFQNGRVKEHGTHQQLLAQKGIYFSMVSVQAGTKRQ

Sequence of CYP2C9 (P11712 whole entry): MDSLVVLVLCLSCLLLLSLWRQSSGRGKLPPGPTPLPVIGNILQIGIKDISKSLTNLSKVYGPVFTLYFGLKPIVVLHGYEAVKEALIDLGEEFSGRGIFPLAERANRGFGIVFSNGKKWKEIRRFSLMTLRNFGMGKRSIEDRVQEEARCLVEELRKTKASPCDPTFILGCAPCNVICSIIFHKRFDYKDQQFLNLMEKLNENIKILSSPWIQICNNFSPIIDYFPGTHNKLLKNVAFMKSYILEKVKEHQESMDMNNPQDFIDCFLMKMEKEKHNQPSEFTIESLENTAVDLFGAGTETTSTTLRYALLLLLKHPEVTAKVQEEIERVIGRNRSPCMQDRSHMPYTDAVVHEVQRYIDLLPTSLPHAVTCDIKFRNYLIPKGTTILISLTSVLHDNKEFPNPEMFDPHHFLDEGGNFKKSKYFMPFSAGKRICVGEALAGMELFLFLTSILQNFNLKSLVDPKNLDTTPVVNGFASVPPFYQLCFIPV
Sequence of CYP2D6 (P10635 whole entry): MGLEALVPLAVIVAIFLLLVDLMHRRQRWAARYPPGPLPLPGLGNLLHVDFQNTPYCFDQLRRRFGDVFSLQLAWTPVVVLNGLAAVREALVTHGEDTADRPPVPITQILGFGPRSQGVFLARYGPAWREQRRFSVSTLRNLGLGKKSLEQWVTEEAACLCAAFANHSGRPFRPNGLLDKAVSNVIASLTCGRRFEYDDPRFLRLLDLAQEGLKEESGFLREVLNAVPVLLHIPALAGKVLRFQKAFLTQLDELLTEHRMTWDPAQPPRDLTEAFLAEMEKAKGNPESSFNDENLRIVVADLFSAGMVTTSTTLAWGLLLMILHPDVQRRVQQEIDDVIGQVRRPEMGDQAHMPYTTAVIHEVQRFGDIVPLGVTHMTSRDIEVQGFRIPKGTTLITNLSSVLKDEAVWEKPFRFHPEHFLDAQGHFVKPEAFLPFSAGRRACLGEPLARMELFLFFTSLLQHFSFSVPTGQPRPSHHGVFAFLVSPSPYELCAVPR
Sequence of CYP3A4 (P08684 whole entry): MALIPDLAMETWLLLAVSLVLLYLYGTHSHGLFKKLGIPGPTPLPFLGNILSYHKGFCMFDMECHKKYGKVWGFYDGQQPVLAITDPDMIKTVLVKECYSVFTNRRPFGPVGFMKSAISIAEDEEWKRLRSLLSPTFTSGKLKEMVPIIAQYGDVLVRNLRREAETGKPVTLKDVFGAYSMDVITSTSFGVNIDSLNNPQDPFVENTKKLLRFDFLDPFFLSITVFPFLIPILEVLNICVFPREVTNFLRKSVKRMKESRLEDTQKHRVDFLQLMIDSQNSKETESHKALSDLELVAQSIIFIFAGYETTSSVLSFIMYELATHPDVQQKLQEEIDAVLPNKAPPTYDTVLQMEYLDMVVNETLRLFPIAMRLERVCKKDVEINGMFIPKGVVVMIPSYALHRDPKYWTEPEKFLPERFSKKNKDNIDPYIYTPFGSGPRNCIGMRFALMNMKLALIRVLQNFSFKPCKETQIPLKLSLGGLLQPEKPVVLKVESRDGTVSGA

Papp A→B [1] | inhibition at 3 µM (CYP3A4) | inhibition at 3 µM (CYP2C9) | inhibition at 3 µM (CYP2D6) | inhibition at 3 µM (CYP2C8) | microsomal CLint at 1 µM [2] | inhibition at 3 µM (CYP1A2) | efflux ratio at 2 µM (MDR1 (ABCB1, P-gp)) | SMILES | pIC50 (NCI-N87) | pIC50 (MDA-MB-468) | pIC50 (BT-474) | pIC50 (HUVEC)
16.6 ×10⁻⁶ cm/s | 25.3% | 23.7% | 0.9% | 50.5% | 239 µL/min/mg | 1.5% |  | COc1ccc2c(c1O)CCCC(CCCC#N)=C2c1cc(OC)c(OC)c(OC)c1 | 6.08 | < 6.00 | 6.04 | 6.16
 |  |  |  |  |  |  |  | COc1ccc2c(c1O)CC=CC=C2c1cc(OC)c(OC)c(OC)c1 | 8.25 | 8.40 | 8.26 | 8.30
 |  |  |  |  |  |  |  | COc1ccc2c(c1O)CCCC(CCC(N)=O)=C2c1cc(OC)c(OC)c(OC)c1 | < 6.00 | < 6.00 | < 6.00 | 6.33
19.6 ×10⁻⁶ cm/s | 31.4% | 75.7% | 2.8% | 45.3% | > 320 µL/min/mg | 2.8% | 1.2 | COc1ccc2c(c1O)CCCC(CCC#N)=C2c1cc(OC)c(OC)c(OC)c1 | 6.06 | 6.25 | 6.14 | 6.19
 |  |  |  |  |  |  |  | COc1ccc2c(c1O)CCCC(CCN(C)C)=C2c1cc(OC)c(OC)c(OC)c1 | < 6.00 | < 6.00 | < 6.00 | 6.60
 |  |  |  |  |  |  |  | COc1ccc2c(c1O)CCCC(CCO)=C2c1cc(OC)c(OC)c(OC)c1 | 6.70 | 6.94 | 6.66 | 6.81
 | 33.9% | 55.3% | 26.2% | 83.5% | 51.2 µL/min/mg | 18.4% |  | COc1ccc2c(c1O)CCCC(Cc1ccccc1)=C2c1cc(OC)c(OC)c(OC)c1 | < 6.00 | < 6.00 | < 6.00 | 6.02
3.3 ×10⁻⁶ cm/s | 31.8% | 75% | 16% | 71.5% | 136 µL/min/mg | 11.3% | 1 | CCC1=C(c2cc(OC)c(OC)c(OC)c2)c2ccc(OC)c(O)c2CCC1 | 6.48 | 6.52 | 6.45 | 6.71
6.2 ×10⁻⁶ cm/s | 39.6% | 91.5% | 13.5% | 83.2% | 108 µL/min/mg | 19.7% | 13.1 | COc1ccc2c(c1O)CCCC(C)=C2c1cc(OC)c(OC)c(OC)c1 | 6.69 | 7.35 | 7.28 | 7.11
 |  |  |  |  |  |  |  | COc1ccc2c(c1O)C[C@@H]1C=C[C@@]2(c2cc(OC)c(OC)c(OC)c2)O1 (racemic) | 7.81 | 8.05 | 7.96 | 7.80
16.1 ×10⁻⁶ cm/s | 3.7% | 6.1% | 0% | 35.4% | 66.3 µL/min/mg | 0% |  | COc1ccc2c(c1O)CCCC(CC(O)CO)=C2c1cc(OC)c(OC)c(OC)c1 (racemic) | < 6.00 | 6.04 | 6.00 | < 6.00
 |  |  |  |  |  |  |  | COc1ccc(/C=C\c2cc(OC)c(OC)c(OC)c2)cc1O [COMBRETASTATIN A4] | 8.60 | 8.96 | 8.41 | 8.60

SMILES | Papp A→B [1] | inhibition at 3 µM (CYP3A4) | inhibition at 3 µM (CYP2C9) | inhibition at 3 µM (CYP2D6) | inhibition at 3 µM (CYP2C8) | microsomal CLint at 1 µM [2] | inhibition at 3 µM (CYP1A2) | efflux ratio at 2 µM (MDR1 (ABCB1, P-gp)) | pIC50 (NCI-N87) | pIC50 (MDA-MB-468) | pIC50 (BT-474) | pIC50 (HUVEC)
COc1ccc2c(c1O)CCCC=C2c1cc(OC)c(OC)c(OC)c1 |  | 16.1% | 89.7% | 6.2% | 77.6% | 54.1 µL/min/mg | 19% |  | 8.42 | 8.82 | 8.54 | 8.34
COc1cc2c(c(OC)c1OC)-c1ccc(OC)c(=O)cc1[C@@H](NC(C)=O)CC2 [COLCHICINE] | 0.76 ×10⁻⁶ cm/s |  | 11.1% | 7.7% | 20.4% |  |  |  | 8.27 | 8.68 | 8.42 | 7.88
